Laboratory results published in publication PMC12596731, “Cys–Lys stapling for unprotected peptides via tunable linkers” (National Science Review, 2025).

How the values were obtained:
[1] = system: human bladder cancer cells; type: cell-based; settings: 48 h
Description: XI. Biological Experiments
Cell Counting Kit (CCK-8) was used to evaluate the proliferation inhibition activity of the compounds, and the half inhibitory concentration IC50 value was determined by single-concentration primary screening and multi-concentration.
Fetal Bovine Serum (FBS) 04-001-1acs, Biological industries; PBS phosphate buffer (PB180327), penicillin-streptomycin sulfate double resistant mixture (100× ) […]
Leibovitz's L-15 medium (PM151010), Wuhan Punosai Life Technology Co., LTD.
CCK-8 Kit, Biosharp life sciences; Trypsin-edta Digestive Solution (05200-056), GIBCO; Cellular DMSO (D2650 -100ML), SIGMA; 96-well cell culture plate, Corning Life Sciences (Wujiang) Co., LTD. 25, 75cm2 cell culture bottle, Corning Life Sciences (Wujiang) Co., LTD. Blood cell counting plate, Shanghai Qiujing Biochemical Reagent Instrument Co., LTD. Cisplatin (D8810), Solarbio life sciences;
Instruments and equipment
Super clean workbench (sw-cj-2fd), Sujing Aetna; Microscope (nib -100), Ningbo Yongxin Optical Co., Ltd; Carbon dioxide cell incubator (MCO -18AC), Phcbi; Electric constant temperature water bath pot (HWS -24), Shanghai Yiheng Technology Co., Ltd; Multifunctional microplate reader (Multiskan MK3), Thermo; One ten-thousandth balance (MS105DU), METTLER; Centrifuge (TD4N), ChangshaYingtai Instrument Co., Ltd; Mixer (SCI-VS), Selo Czech Republic, USA.
The samples were dissolved in the cell -grade DMSO after accurately weighing to generate the 10 mM drug solution. The drug solution was further diluted to tenfold detection concentration by cell culture medium.
Standard Operation Procedure
Detection principle of cytotoxicity (CCK -8 method):
The detection principle is that the CCK-8 reagent contains WST-8, which is reduced S52 to a highly water-soluble yellow methyl product (formazan) by dehydrogenase in the cell mitochondria under the action of electron carrier 1-methoxy-5-methylphenazine dimethyl sulfate (1-methoxy PMS). The number of the nail products produced is directly proportional to the number of living cells.
(1) Inoculate cells: The cells were prepared into single cell suspension with the culture medium containing 10% fetal bovine serum, and the 96 well plates were inoculated with 90 uL cell culture medium (Adherent cell viewed 5×10^4/mL and Suspension cell viewed 9×10^4/mL) per well, then cultured at 5% CO2 and 37 ℃ for 24 hours.
(2) Add the sample solution to be tested: Add 10 µL sample solution to each well. One concentration was set for each sample during preliminary screening and three multiple holes were set for each concentration. Eight concentration gradients were set for each sample for IC50 determination and three multiple holes were set for each concentration.
The 96 well plates were cultured at 5% CO2 and 37 ℃ for 48 hours. The experiment was divided into a blank group, control group and drug group.
(3) Color development: The old culture medium and drug solution of adherent cells were sucked out, then 100 µL of CCK-8 solution (diluted ten times with the basic medium) was added and the suspension cells were directly added 10 µL of CCK-8 stock solution. Culture at 37 ℃ with 5% CO2 for 1-4 h (dark operation, real-time observation).
(4) Result detection: The absorbance was measured at 450 nm with an enzyme labeling instrument and the original data and results were recorded.
(5) The toxicity is expressed by cell inhibition, and the calculation formula is as follows:
Cell inhibition (%) = (ODControl-ODDrug) / (ODControl-ODBlank)×100%. The IC50 was calculated by the software graphpad prism 8 (version 8.0.2, from GraphPad SoftwareInc)，and the experimental results are expressed in ± SD.
6) Positive control: Cisplatin.

[2] = Circular dichroism measurement of α-helicity; type: physicochemical; settings: 40% TFE/H2O, 0.05 mM peptide, room temperature, path length 1 mm, 180-260 nm, average of at least 3 values
Description: VIII. Circular Dichroism Measurements.[22]
General Procedure for the measurement of CD spectra were mensurated at a wavelength ranging from 180 to 260 nm, with a path length of 1mm and a scanning speed of 200 nm/min at room temperature on the J-1500 (Jasco, Japan) spectropolarimeter. The lyophilized solid linear and staple peptides were dissolved in deionized water (bubbled with nitrogen for 30 minutes) to afford a 1 mM solution. The 1 mM stock solution was diluted with six different solvent systems (H2O, 5%, 10%, 20%, 30%, 40% TFE/H2O) to afford 0.05 mM solutions. The data described is the average of at least 3 values. The mean peptide ellipticity [θ] was calculated using equation (1) and plotted against […]
θ: ellipticity [mdeg], C: peptide molar concentration [M], Np: number of peptide units, l: cell path length [cm].[6]
Figure S20: The CD spectroscopy of 5y was measured in six different solvent systems Through the above data, we obviously saw that the stapled peptide 5y had the best helicity (34.7%) in 40% solution of TFE/H2O, and then we conducted CD test on the active peptide QN-16 before and after stapling.

chymotrypsin = assay: Proteolysis assay with chymotrypsin; type: in vitro ADME; settings: chymotrypsin solution, 500 µL of 500 µM peptide in phosphate buffer pH 7.4 + 10 µL chymotrypsin 100 µg/mL, 37 °C, HPLC integration relative to starting peptide, read-out: peptide degraded under chymotrypsin for 1.5 h
Description: IX. Proteolysis assays.
500 µL of peptide TR-12 (500 µM, 2 µL DMSO was added to help solubilization) in phosphate buffer (pH 7.4) was mixed and incubated with 10 µL of the protease solution (Chymotrypsin – 100 µg/mL) at 37 ℃. At 0, 10, 20 , 40, 60, 90 minutes, aliquots of 50 µL were quenched with 50 µL of 1% TFA solution in MeCN respectively and subjected to HPLC analysis. Peptide concentrations at different time points were quantified by integration of the HPLC trace relative to the starting […]
500 µL of peptide 5o (500 µM, 2 µL DMSO was added to help solubilization) in phosphate buffer (pH 7.4) was mixed and incubated with
Table S2. Proteolytic assays of peptide TR-12 and 5o with chymotrypsin.
Time/Peak area 0 min 10 min 20 min 40 min 60 min 90 min

[3] = Serum stability study in Foetal Bovine Serum; settings: 300 µL of 1 mg/mL peptide in deionized water + 300 µL Foetal Bovine Serum, 37 °C, CH3CN precipitation, RP-HPLC peak area of intact peptide
Description: The peptide of interest (300 µ L of 1 mg/mL stock solution in deionized water) was added to 300 µ L of
Foetal Bovine Serum and incubated at 37° C in an incubator. At each time point, an aliquot of 50 µ L was
drawn and an equal volume of ice-chilled CH3CN was added to the aliquot to precipitate serum proteins.
The cloudy mixture was centrifuged at 12,000 rpm for 10 min and then supernatant was removed. The
level of degradation was determined by the integration of the area under the RP-HPLC peak
corresponding to the intact peptide.
Before testing the serum stability, the standard curve (the relationship between concentration and peak
area) was established by RP-HPLC for CP-9 and TR-12 and QN-16 and 5h and 5o and 5w.
shift their retention times later.

Row | IC50 [1] | Helicity (α-helicity by CD) [2] | metabolised at 1.5 h, 490 µM (chymotrypsin) | time for complete degradation in bovine serum [3] | Compound
1 | 14.7 µM | 81.4% | – | – | CC(=O)N[C@H](C(=O)N[C@@H](CO)C(=O)N[C@@H](Cc1ccccc1)C(=O)N[C@H]1CCCCNC(=O)CCC/C(=C\Cl)SSC[C@@H](C(=O)N[C@@H](CC(C)C)C(=O)N[C@@H](CC(C)C)C(=O)N[C@@H](CO)C(=O)N[C@@H](CCCNC(=N)N)C(N)=O)NC(=O)[C@H](Cc2c[nH]c3ccccc23)NC(=O)[C@H](Cc2ccc(O)cc2)NC(=O)[C@H](CCC(N)=O)NC1=O)[C@@H](C)O [Peptide 5l]
2 | – | 60.8% | – | – | Ac-QSQQTFCNLWRLLKQN-NH2 (also: sidechain bridge or staple (positions not given here)) [Peptide 5v, QN-16 stapled with reagent 3d]
3 | 16.2 µM | 44.7% | 90% | ≤ 2 h | CC(=O)N[C@H](C(=O)N[C@@H](CO)C(=O)N[C@@H](Cc1ccccc1)C(=O)N[C@@H](CCCCN)C(=O)N[C@@H](CCC(N)=O)C(=O)N[C@@H](Cc1ccc(O)cc1)C(=O)N[C@@H](Cc1c[nH]c2ccccc12)C(=O)N[C@@H](CS)C(=O)N[C@@H](CC(C)C)C(=O)N[C@@H](CC(C)C)C(=O)N[C@@H](CO)C(=O)N[C@@H](CCCNC(=N)N)C(N)=O)[C@@H](C)O [TR-12]
4 | – | – | – | ≤ 5 h | Ac-CPIMEDRKP-NH2 [CP-9]
5 | 8.55 µM | – | 43% | – | CC(=O)N[C@H](C(=O)N[C@@H](CO)C(=O)N[C@@H](Cc1ccccc1)C(=O)N[C@H]1CCCCNC(=O)CCCC/C(=C\Cl)SSC[C@@H](C(=O)N[C@@H](CC(C)C)C(=O)N[C@@H](CC(C)C)C(=O)N[C@@H](CO)C(=O)N[C@@H](CCCNC(=N)N)C(N)=O)NC(=O)[C@H](Cc2c[nH]c3ccccc23)NC(=O)[C@H](Cc2ccc(O)cc2)NC(=O)[C@H](CCC(N)=O)NC1=O)[C@@H](C)O [Peptide 5o]
6 | – | 30.3% | – | – | Ac-QSQQTFCNLWRLLKQN-NH2 [QN-16]
7 | – | 34.7% | – | – | Ac-QSQQTFCNLWRLLKQN-NH2 (also: sidechain bridge or staple (positions not given here)) [Peptide 5y, QN-16 stapled with reagent 3m]
